# Reference: article PMC5353646, “Allosteric modulation of peroxisomal membrane protein recognition by farnesylation of the peroxisomal import receptor PEX19” (Nature Communications, 2017)
# Key:
# [1] = target: T1, non-farnesylated PEX19 CTD (Homo sapiens, UniProt P40855); experiment: NMR titration of non-farnesylated PEX19 CTD with PMP peptides; type: binding; settings: 100 μM PEX19 CTD; peptide molar ratio up to 10:1; 1H,15N HSQC; 298 K
# T1 construct: we studied the human PEX19 CTD (residues 161–299) that includes the native C-terminus; hexahistidine (TEV-cleavable) (cleaved yes); made in house; host or cells: Escherichia coli BL21 (DE3)
# T1 sequence (P40855 161-299): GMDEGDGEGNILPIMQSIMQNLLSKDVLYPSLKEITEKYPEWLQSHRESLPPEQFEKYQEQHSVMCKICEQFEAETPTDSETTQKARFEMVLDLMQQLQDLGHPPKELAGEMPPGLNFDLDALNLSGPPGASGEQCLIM
# Description: Figure 4 NMR analysis of PMP binding to non-farnesylated and farnesylated PEX19 CTD. (a) Comparison of ^1H,^15N HSQC spectra of 100 μM non-farnesylated CTD free (black) and in the presence of 10-fold excess of the ALDP-derived peptide (cyan). (b) Comparison of ^1H,^15N HSQC spectra of 100 μM farnesylated PEX19 CTD free (black) and in the presence of 5 (green) and 10 (red) molar ratio of the ALDP peptide. The grey dashed line indicates the position of additional baseline correction applied to remove noise from DMF signals in the peptide stock solution. (c) Chemical shift perturbation of Met/Ile methyl groups seen in ^1H,^13C HSQC experiments upon increasing concentration of ALDP peptide. […] (d) Quantification of chemical shift perturbation (CSP) of amide and methyl groups with respect to the PEX19 amino acid sequence. […] Grey colour refers to residues, which could not be analysed.
# NMR spectra were acquired at 298 K on a Bruker Avance III 600-MHz spectrometer with a TCI cryo-probe head, an Avance III 750-MHz spectrometer with a TXI probe head, or an Avance 900 instrument with a TXI cryo-probe head. Spectra were processed using NMRPipe[31] and analysed with Sparky[32]. […] Backbone and side chain assignments were obtained from HNCA, HNCACB, CBCA(CO)NH, H(C)CH-TOCSY and (H)CCH-TOCSY spectra. ^13C- and ^15N- edited NOESY spectra with a mixing time of 70 ms were recorded to derive distance restraints. […]
# [2] = target: T2, farnesylated PEX19 CTD (Homo sapiens, UniProt P40855); experiment: NMR titration of farnesylated PEX19 CTD with PMP peptides; type: binding; settings: 1H,15N HSQC; 298 K; ALDP at 5 and 10 molar ratio with 100 μM PEX19 CTD; PEX13 at 1:1.5 and 1:0.5 with 50 μM
# T2 construct: we studied the human PEX19 CTD (residues 161–299) that includes the native C-terminus; hexahistidine (TEV-cleavable) (cleaved yes); made in house; host or cells: Escherichia coli BL21 (DE3); farnesylated in vitro with recombinant S. cerevisiae farnesyl transferase
# T2 sequence (P40855 161-299): T1 sequence (P40855 161-299)
# [3] = test system: PEX19 CTD M179R; experiment: Fluorescence polarization, ALDP peptide binding to PEX19 CTD M179R; parameters: species or system human; settings: with or without farnesylation, FITC-labelled ALDP peptide 20 nM, triplicate (n = 3)
# Description: (§1) ALDP peptide (62-AAKAGMNRVFLQRLL-76) fused N-terminally with fluorescein isothiocyanate (FITC), was purchased from Peptide Specialty Laboratories GmbH. The lyophilized powder was dissolved in 1 ml water resulting in a 5 mM stock solution. Overnight dialysis against buffer containing 50 mM Tris pH 8.0, 50 mM NaCl, removed trifluoroacetate counterions. For the determination of each binding curve a 12 point titration was performed with constant concentration of 20 nM labelled peptide with increasing concentrations of PEX19 CTD variants. Starting concentration of PEX19 CTD was 1 mM with 12 serial dilutions reaching 0.5 μM. Reaction mixtures were then transferred into 96-well Optiplate and measured as triplicates in PerkinElmer EnVision plate reader. […]
# (§2) Supplementary Figure 6: ALDP af finity measurement for PEX19 CTD proteins using a fluorescence polarization assay . Polarization plots as a function of protein concentration for the direct titration of PEX19 non-farnesylated (black) and farnesylated (red) forms (wild type and residue spedific mutants) into fluorescein-labeled ALDP peptide. […]
# (§3) (also on this page, place not known: assay. affinity Fluorescence polarization (mP) wt wtfarn Fluorescence polarization (mP) M179Rfarn 0.00 1.00 Fluorescence polarization (mP) M255Rfarn 0.00 1.00 Fluorescence polarization (mP) I195Kfarn Kd Kd /uni03BCM)
# [4] = NMR 13C secondary chemical shifts (peptide conformation); type: physicochemical; settings: C-terminally extended version of the ALDP peptide with additional tryptophan (residue 68 to 82)
# Excerpt: Phe71 aromatic ring protons
# Residue number Leucine residue
# Supplementary Figure 8: Intermolecular NOEs between PEX19 CTD and the ALDP peptide, and secondary structure of the latter. (a) 1H,1H plane of a 3D ω1-filtered, ω2-edited 13C-NOESY-HSQC experiment of farnesylated PEX19 CTD free (black) and bound to the ALDP peptide (red). Methyl and methylene protons of the unlabeled farnesyl group of the PEX19 CTD show NOEs with protons of the isotope-labeled farnesylated PEX19 CTD (black circles). In the presence of also unlabeled ALDP peptide additional intermolecular methyl-methyl and aliphatic-aromatic NOEs are observed (red circles and below). (b) NMR 13C secondary chemical shifts of a C-terminally extended […]
# tion. (c) Due to signal overlap, 5 out of 7 spin systems for leucine residues were assigned. Nevertheless, also the leucines residues adopt a helical conformation.
# (also on this page, place not known: (Leu75)(Leu76) (Leu81)(Leu82) 5 LeuC Cα- Cβ [p.p.m.] Cα- Cβ [p.p.m.] c ω2 ω1 1H (p.p.m.) ω1 1H (p.p.m.) QDPro273/Pro274 { - - { 5)
# [5] = test system: PEX19 CTD M255R; experiment: Fluorescence polarization, ALDP peptide binding to PEX19 CTD M255R; parameters: species or system human; settings: with or without farnesylation, FITC-labelled ALDP peptide 20 nM, triplicate (n = 3)
# Description: as §1, §2, §3
# [6] = test system: PEX19 CTD I195K; experiment: Fluorescence polarization, ALDP peptide binding to PEX19 CTD I195K; parameters: species or system human; settings: with or without farnesylation, FITC-labelled ALDP peptide 20 nM, triplicate (n = 3)
# Description: as §1, §2, §3
# [7] = target: T3, farnesylated wild type PEX19 CTD (Homo sapiens, UniProt P40855); experiment: Fluorescence polarization, ALDP peptide binding to farnesylated wild type PEX19 CTD
# T3 construct: we studied the human PEX19 CTD (residues 161–299) that includes the native C-terminus; hexahistidine (TEV-cleavable) (cleaved yes); made in house; host or cells: Escherichia coli BL21 (DE3); farnesylated in vitro with recombinant S. cerevisiae farnesyl transferase
# T3 sequence (P40855 161-299): T1 sequence (P40855 161-299)
# Description: as §1, §2
# standard deviations for triplicate measurements (n = 3).
# as §3
sequence,measurement,setting,value
"AAKAGMNRVFLQRLL [ALDP peptide, peptide, residues 62–76 of human ALDP]",NMR spectral changes of non-farnesylated PEX19 CTD,[1],no significant spectral changes
same,NMR chemical shift perturbations / line broadening of farnesylated PEX19 CTD,[2],distinct chemical shift perturbations
same,binding to PEX19 CTD M179R,[3],impaired binding
same,helical conformation of free peptide,[4],preformed helical conformation
same,binding to PEX19 CTD M255R,[5],impaired binding
same,binding to PEX19 CTD I195K,[6],impaired binding
same,affinity (in words),[7]; farnesylated PEX19 CTD,micromolar affinity
same,increase in affinity upon farnesylation of wild type PEX19 CTD,[7]; ratio farnesylated vs non-farnesylated wild type PEX19 CTD,seven
